Experimental data as given in patent US9334272B2, “Derivatives of purinic and pyrimidinic antiviral agents and use thereof as potent anticancer agents” (Ramot at Tel-Aviv University Ltd., priority 2007, dated 2016).

Test system: kinases which phosphorylate acyclovir
Test: Acyclovir phosphorylation (viral thymidine kinase activity) in 4T1 cell extracts
Type: cell-based, murine
Details: 4T1 cells, 24 hours, 40 μM
Method: The mammalian thymidine kinase (TK) has a narrow specificity and acts only on thymidine. […] The lysates obtained were kept at −70 ° C. until analyzed either spectroscopically or by RT-PCR. […] The ADP is converted to ATP by pyruvate kinase when it hydrolyzes phosphoenolpyruvate (PEP) to pyruvate. Lactate dehydrogenase then converts pyruvate to lactate and NADH to NAD^+. The decrease in fluorescence emitted by NADH (excitation/emission of 320/460 nm) during 10 cycles, each lasting 1 minute, were monitored using a FluoStar fluorometer. The reaction velocity was determined by the slope of the fluorescence vs. time.

CCCC(CCC)C(=O)Nc1nc2c(ncn2COCCOC(=O)C(CCC)CCC)c(=O)[nH]1 [Compound 6, N-valproyl-9-(2-valproyloxy)ethoxymethylguanine]
rate of acyclovir phosphorylation (kinase activity): increased the rate of acyclovir phosphorylation in a significant and reproducible manner
